{"source": "patent US20230330093A1", "about": "“APPLICATION OF NITROGEN-CONTAINING SATURATED HETEROCYCLIC COMPOUND” (SHANGHAI PHARMACEUTICALS HOLDING CO., LTD., priority 2020, published 2023)", "tested_on": "cynomolgus monkeys", "assay": "4-week safety study: necropsy, gross pathology and organ weights;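 further: daily nasogastric dosing for 28 days, organs weighed at necropsy on day 28 or after a 28-day drug-free recovery (day 56), relative weights expressed as percent of body or brain weight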", "conditions": "Female", "protocol": "Cynomolgus monkeys (5/sex/group) were selected using a computerized randomization procedure based on body weight, and the compound of Formula I was administered to the cynomolgus monkeys by nasogastric feeding at dose levels of 0 (control), 20, 100, 450 mg/kg/day in a volume of 5 ml/kg. Individual dose volumes were adjusted weekly based on body weight of animals. For all the groups, 2/3 of the animals were randomly selected and euthanized on day 28. The remaining animals were euthanized after 28-day drug free period.\nA complete gross necropsy was conducted on all animals by visual inspection at the end of the exposure period (day 28) and the recovery phase (day 56). The following selected organs were trimmed, weighed and evaluated in terms of absolute weight and as a percentage of final body weight or brain weight: brain, heart, kidney, liver, spleen, thymus, testes, epididymides, uterus, ovaries, adrenals and thyroid (including the parathyroid). The following tissues were preserved in 10% neutral buffered formalin: brain, pituitary gland, thyroid (including the parathyroid), trachea, heart, pancreas, spleen, adrenal glands, prostate, ovaries, uterus (including cervix uteri and oviduct), vagina, testes, epididymides, seminal vesicle, esophagus, duodenum, jejunum, ileum, cecum, colon, rectum, mesenteric lymph nodes, Peyer's patches, submaxillary lymph nodes, aorta, eyes, skeletal muscle, sciatic nerve, femur (including metaphysis), mammary gland, sternum, salivary glands, spinal cord, urinary bladder, lung (including the bronchi), liver, kidneys, stomach, bone marrow (sternal), thymus, sternum, gallbladder, any gross lesions or masses. The lung tissue was inflated with fixative at the time of necropsy. All the preserved tissues were paraffin embedded, sectioned, stained with hematoxylin and eosin (HE) and examined microscopically. Bone marrow cellular morphology examination was conducted with both smear (sternum) and paraffin-embedded sternum section.\nFor each sex, body weight, rectal temperature, ECG, organ weight, hematological parameters and serum biochemical data were analyzed with a statistical software SAS 9.3. Firstly homogeneity of variance was analyzed using Levene's test. If P>0.05, the one-way ANOVA analysis was employed. If P<0.05, the Kruskal-Wallis test was used. If the resulting ANOVA p-value was <0.05, a comparison of each group using the Dunnett T test was performed. If the resulting Kruskal-Wallis test p-value was <0.05, then the Dunnett T test was performed after data rank conversion.", "data": [{"smiles": "COC(=O)NCCCn1nc([C@@H](C)N(C(=O)[C@H]2CNCCO2)C2CC2)c2ccc(C)nc21", "note": "[compound of Formula I]", "values": [{"measurement": "Liver Absolute weight", "setting": "20 mg/kg, d 28", "result": "58.37 ± 7.38", "unit": "g"}, {"measurement": "Liver Relative weight (/body weight)", "setting": "20 mg/kg, d 28", "result": "2.06 ± 0.22"}, {"measurement": "Liver Relative weight (/brain weight)", "setting": "20 mg/kg, d 28", "result": "90.10 ± 7.72"}, {"measurement": "Thymus Absolute weight", "setting": "20 mg/kg, d 28", "result": "1.23 ± 0.40", "unit": "g"}, {"measurement": "Thymus Relative weight (/body weight)", "setting": "20 mg/kg, d 28", "result": "0.04 ± 0.01"}, {"measurement": "Thymus Relative weight (/brain weight)", "setting": "20 mg/kg, d 28", "result": "1.87 ± 0.46"}, {"measurement": "Uterus Absolute weight", "setting": "20 mg/kg, d 28", "result": "5.97 ± 1.20", "unit": "g"}, {"measurement": "Uterus Relative weight (/body weight)", "setting": "20 mg/kg, d 28", "result": "0.21 ± 0.04"}, {"measurement": "Uterus Relative weight (/brain weight)", "setting": "20 mg/kg, d 28", "result": "9.19 ± 1.57"}, {"measurement": "kidney Absolute weight", "setting": "20 mg/kg, d 28", "result": "12.20 ± 2.23", "unit": "g"}, {"measurement": "kidney Relative weight (/body weight)", "setting": "20 mg/kg, d 28", "result": "0.43 ± 0.07"}, {"measurement": "kidney Relative weight (/brain weight)", "setting": "20 mg/kg, d 28", "result": "18.73 ± 1.74"}, {"measurement": "Liver Absolute weight", "setting": "20 mg/kg, d 56", "result": "68.35 ± 3.32", "unit": "g"}, {"measurement": "Liver Relative weight (/body weight)", "setting": "20 mg/kg, d 56", "result": "2.01 ± 0.07"}, {"measurement": "Liver Relative weight (/brain weight)", "setting": "20 mg/kg, d 56", "result": "104.00 ± 10.62"}, {"measurement": "Thymus Absolute weight", "setting": "20 mg/kg, d 56", "result": "2.00 ± 0.71", "unit": "g"}, {"measurement": "Thymus Relative weight (/body weight)", "setting": "20 mg/kg, d 56", "result": "0.06 ± 0.02"}, {"measurement": "Thymus Relative weight (/brain weight)", "setting": "20 mg/kg, d 56", "result": "3.07 ± 1.24"}, {"measurement": "Uterus Absolute weight", "setting": "20 mg/kg, d 56", "result": "11.30 ± 3.25", "unit": "g"}, {"measurement": "Uterus Relative weight (/body weight)", "setting": "20 mg/kg, d 56", "result": "0.33 ± 0.07"}, {"measurement": "Uterus Relative weight (/brain weight)", "setting": "20 mg/kg, d 56", "result": "17.30 ± 5.86"}, {"measurement": "kidney Absolute weight", "setting": "20 mg/kg, d 56", "result": "13.75 ± 0.78", "unit": "g"}, {"measurement": "kidney Relative weight (/body weight)", "setting": "20 mg/kg, d 56", "result": "0.41 ± 0.06"}, {"measurement": "kidney Relative weight (/brain weight)", "setting": "20 mg/kg, d 56", "result": "20.86 ± 0.06"}, {"measurement": "Liver Absolute weight", "setting": "100 mg/kg, d 28", "result": "57.60 ± 4.25", "unit": "g"}, {"measurement": "Liver Relative weight (/body weight)", "setting": "100 mg/kg, d 28", "result": "1.96 ± 0.13"}, {"measurement": "Liver Relative weight (/brain weight)", "setting": "100 mg/kg, d 28", "result": "96.55 ± 7.51"}, {"measurement": "Thymus Absolute weight", "setting": "100 mg/kg, d 28", "result": "0.73 ± 0.50", "unit": "g"}, {"measurement": "Thymus Relative weight (/body weight)", "setting": "100 mg/kg, d 28", "result": "0.02 ± 0.02"}, {"measurement": "Thymus Relative weight (/brain weight)", "setting": "100 mg/kg, d 28", "result": "1.18 ± 0.73"}, {"measurement": "Uterus Absolute weight", "setting": "100 mg/kg, d 28", "result": "7.03 ± 0.94", "unit": "g"}, {"measurement": "Uterus Relative weight (/body weight)", "setting": "100 mg/kg, d 28", "result": "0.24 ± 0.03"}, {"measurement": "Uterus Relative weight (/brain weight)", "setting": "100 mg/kg, d 28", "result": "11.84 ± 2.02"}, {"measurement": "kidney Absolute weight", "setting": "100 mg/kg, d 28", "result": "11.67 ± 0.71", "unit": "g"}, {"measurement": "kidney Relative weight (/body weight)", "setting": "100 mg/kg, d 28", "result": "0.40 ± 0.02"}, {"measurement": "kidney Relative weight (/brain weight)", "setting": "100 mg/kg, d 28", "result": "19.61 ± 1.86"}, {"measurement": "Liver Absolute weight", "setting": "100 mg/kg, d 56", "result": "68.45 ± 20.01", "unit": "g"}, {"measurement": "Liver Relative weight (/body weight)", "setting": "100 mg/kg, d 56", "result": "1.86 ± 0.37"}, {"measurement": "Liver Relative weight (/brain weight)", "setting": "100 mg/kg, d 56", "result": "104.90 ± 37.06"}, {"measurement": "Thymus Absolute weight", "setting": "100 mg/kg, d 56", "result": "2.35 ± 0.49", "unit": "g"}, {"measurement": "Thymus Relative weight (/body weight)", "setting": "100 mg/kg, d 56", "result": "0.07 ± 0.02"}, {"measurement": "Thymus Relative weight (/brain weight)", "setting": "100 mg/kg, d 56", "result": "3.54 ± 0.52"}, {"measurement": "Uterus Absolute weight", "setting": "100 mg/kg, d 56", "result": "8.30 ± 3.39", "unit": "g"}, {"measurement": "Uterus Relative weight (/body weight)", "setting": "100 mg/kg, d 56", "result": "0.23 ± 0.12"}, {"measurement": "Uterus Relative weight (/brain weight)", "setting": "100 mg/kg, d 56", "result": "12.44 ± 4.34"}, {"measurement": "kidney Absolute weight", "setting": "100 mg/kg, d 56", "result": "14.15 ± 2.33", "unit": "g"}, {"measurement": "kidney Relative weight (/body weight)", "setting": "100 mg/kg, d 56", "result": "0.39 ± 0.03"}, {"measurement": "kidney Relative weight (/brain weight)", "setting": "100 mg/kg, d 56", "result": "21.60 ± 4.92"}, {"measurement": "Liver Absolute weight", "setting": "450 mg/kg, d 28", "result": "69.40 ± 3.68", "unit": "g"}, {"measurement": "Liver Relative weight (/body weight)", "setting": "450 mg/kg, d 28", "result": "2.78 ± 0.31"}, {"measurement": "Liver Relative weight (/brain weight)", "setting": "450 mg/kg, d 28", "result": "112.03 ± 12.42"}, {"measurement": "Thymus Absolute weight", "setting": "450 mg/kg, d 28", "result": "0.50 ± 0.14", "unit": "g"}, {"measurement": "Thymus Relative weight (/body weight)", "setting": "450 mg/kg, d 28", "result": "0.02 ± 0.01"}, {"measurement": "Thymus Relative weight (/brain weight)", "setting": "450 mg/kg, d 28", "result": "0.81 ± 0.27"}, {"measurement": "Uterus Absolute weight", "setting": "450 mg/kg, d 28", "result": "3.50 ± 0.14", "unit": "g"}, {"measurement": "Uterus Relative weight (/body weight)", "setting": "450 mg/kg, d 28", "result": "0.14 ± 0.01"}, {"measurement": "Uterus Relative weight (/brain weight)", "setting": "450 mg/kg, d 28", "result": "5.63 ± 0.10"}, {"measurement": "kidney Absolute weight", "setting": "450 mg/kg, d 28", "result": "12.95 ± 0.07", "unit": "g"}, {"measurement": "kidney Relative weight (/body weight)", "setting": "450 mg/kg, d 28", "result": "0.52 ± 0.03"}, {"measurement": "kidney Relative weight (/brain weight)", "setting": "450 mg/kg, d 28", "result": "20.87 ± 1.10"}, {"measurement": "Liver Absolute weight", "setting": "450 mg/kg, d 56", "result": "72.40 ± 11.74", "unit": "g"}, {"measurement": "Liver Relative weight (/body weight)", "setting": "450 mg/kg, d 56", "result": "2.04 ± 0.05"}, {"measurement": "Liver Relative weight (/brain weight)", "setting": "450 mg/kg, d 56", "result": "109.03 ± 13.64"}, {"measurement": "Thymus Absolute weight", "setting": "450 mg/kg, d 56", "result": "1.40 ± 0.14", "unit": "g"}, {"measurement": "Thymus Relative weight (/body weight)", "setting": "450 mg/kg, d 56", "result": "0.04 ± 0.01"}, {"measurement": "Thymus Relative weight (/brain weight)", "setting": "450 mg/kg, d 56", "result": "2.12 ± 0.29"}, {"measurement": "Uterus Absolute weight", "setting": "450 mg/kg, d 56", "result": "9.60 ± 2.40", "unit": "g"}]}]}
